Results reported in the NIST ThermoML archive (doi:10.1016/j.fluid.2017.12.010).

Conditions: Liquid, Vibrating tube method

CCCCCCCCCCCC [dodecane]
Conditions | mass density [kg/m3]
283.29 K, 100 kPa | 756
283.29 K, 1000 kPa | 757
283.29 K, 3000 kPa | 758
283.3 K, 5000 kPa | 760
283.3 K, 10000 kPa | 763
283.3 K, 30000 kPa | 775
283.3 K, 40000 kPa | 780
283.3 K, 50000 kPa | 785
283.3 K, 60000 kPa | 790
283.31 K, 20000 kPa | 769
283.31 K, 70000 kPa | 795
283.32 K, 80000 kPa | 799
283.32 K, 90000 kPa | 803
293.17 K, 100 kPa | 749
293.18 K, 1000 kPa | 750
293.19 K, 5000 kPa | 753
293.19 K, 10000 kPa | 756
293.19 K, 20000 kPa | 763
293.19 K, 30000 kPa | 769
293.19 K, 40000 kPa | 774
293.19 K, 50000 kPa | 780
293.19 K, 70000 kPa | 789
293.19 K, 80000 kPa | 794
293.19 K, 90000 kPa | 798
293.19 K, 100000 kPa | 802
293.2 K, 60000 kPa | 785
303.04 K, 30000 kPa | 762
303.04 K, 100000 kPa | 797
303.05 K, 100 kPa | 742
303.05 K, 1000 kPa | 743
303.05 K, 5000 kPa | 746
303.05 K, 20000 kPa | 756
303.05 K, 50000 kPa | 774
303.05 K, 60000 kPa | 779
303.05 K, 70000 kPa | 784
303.05 K, 80000 kPa | 789
303.05 K, 90000 kPa | 793
303.06 K, 10000 kPa | 749
303.06 K, 40000 kPa | 768
312.89 K, 100 kPa | 736
312.89 K, 1000 kPa | 737
312.9 K, 5000 kPa | 740
312.9 K, 10000 kPa | 744
312.9 K, 20000 kPa | 751
312.9 K, 30000 kPa | 757
312.9 K, 40000 kPa | 763
312.9 K, 50000 kPa | 769
312.9 K, 60000 kPa | 774
312.9 K, 70000 kPa | 780
312.9 K, 80000 kPa | 784
312.9 K, 90000 kPa | 789
312.9 K, 100000 kPa | 793
322.83 K, 100 kPa | 727
322.83 K, 1000 kPa | 728
322.83 K, 5000 kPa | 732
322.83 K, 10000 kPa | 736
322.83 K, 20000 kPa | 743
322.83 K, 30000 kPa | 750
322.83 K, 40000 kPa | 756
322.83 K, 50000 kPa | 762
322.83 K, 60000 kPa | 768
322.83 K, 70000 kPa | 773
322.83 K, 80000 kPa | 778
322.83 K, 90000 kPa | 783
322.83 K, 100000 kPa | 787
332.74 K, 100 kPa | 720
332.74 K, 1000 kPa | 721
332.74 K, 5000 kPa | 725
332.74 K, 10000 kPa | 729
332.74 K, 20000 kPa | 737
332.74 K, 30000 kPa | 744
332.74 K, 40000 kPa | 750
332.74 K, 50000 kPa | 757
332.74 K, 60000 kPa | 762
332.74 K, 70000 kPa | 768
332.74 K, 80000 kPa | 773
332.74 K, 90000 kPa | 778
332.75 K, 100000 kPa | 782
342.67 K, 100 kPa | 713
342.67 K, 1000 kPa | 714
342.67 K, 5000 kPa | 718
342.67 K, 10000 kPa | 722
342.67 K, 20000 kPa | 731
342.67 K, 30000 kPa | 738
342.67 K, 40000 kPa | 745
342.67 K, 50000 kPa | 751
342.67 K, 60000 kPa | 757
342.67 K, 69990 kPa | 763
342.67 K, 80000 kPa | 768
342.67 K, 90000 kPa | 773
342.67 K, 100000 kPa | 778
352.58 K, 100 kPa | 707
352.58 K, 1000 kPa | 708
352.58 K, 5000 kPa | 712
352.58 K, 10000 kPa | 716
352.58 K, 20000 kPa | 725
352.58 K, 30000 kPa | 733
352.58 K, 40000 kPa | 740
352.58 K, 50000 kPa | 747
352.58 K, 60000 kPa | 753
352.58 K, 70000 kPa | 759
352.58 K, 80000 kPa | 764
352.58 K, 90000 kPa | 769
352.58 K, 100000 kPa | 774
362.48 K, 5000 kPa | 704
362.48 K, 10000 kPa | 709
362.48 K, 20000 kPa | 718
362.48 K, 30000 kPa | 726
362.48 K, 50000 kPa | 741
362.48 K, 80000 kPa | 759
362.48 K, 90000 kPa | 764
362.49 K, 100 kPa | 699
362.49 K, 1000 kPa | 700
362.49 K, 40000 kPa | 734
362.49 K, 60000 kPa | 747
362.49 K, 70000 kPa | 753
362.49 K, 100000 kPa | 769
